# PubChem BioAssay AID1996
# Conditions: buffer; pH 7.4; 200.0 µM
row,SMILES,solubility kinetic [mg/mL]
1,O=[N+]([O-])c1cccc2ccc(N3CCOCC3)nc12,0.0384
2,CCOc1cnc(-c2c(-c3c(F)cccc3Cl)noc2C)o1,0.0091
3,CC1CC(C)CN(C(=O)COC(=O)c2ccc3c(c2)OCCO3)C1 (stereo not given),0.0495
4,O=C1CN=C(c2ccccc2)c2c(sc3c2CCCC3)N1,0.0363
5,O=C(NC(=S)/C(=C1\CCCCCN1)[N+](=O)[O-])c1ccccc1,0.0449
6,COc1ccccc1CN1CCNC(=O)C1CC(=O)O (stereo not given),> 0.0417
7,O=C(Nc1ccccc1)OCc1cnc(Cl)s1,0.0367
8,CC(SCc1cc(=O)n2c([nH]c3ccccc32)c1C#N)C(=O)O (stereo not given),0.0217
9,CCOc1ccc2[nH]c3c(NCCCOC)ncnc3c2c1,0.0364
10,CC1CCN(C(=O)COC(=O)c2ccc([N+](=O)[O-])o2)CC1,> 0.0444
11,COc1cccc(N2C(=O)C3C(C2=O)C3(c2ccccc2)c2ccccc2)c1 (stereo not given),0.0063
12,O=C(Nc1cc2c(cc1Br)OCCO2)c1ccc(=O)[nH]c1,> 0.0527
13,CCN(CC)CCN=Cc1c(O)n(Cc2ccco2)c(=O)[nH]c1=O,> 0.0502
14,Cc1ccc(NC(=O)C2CC(=O)N(C(C)C)C2)cc1Cl (stereo not given),> 0.0442
15,CC(C)c1ccc(NC(=O)C2C3C=CC(CC3)C2C(=O)O)cc1 (stereo not given),0.0032
16,CC(C)C(OC(=O)c1ccccc1)c1nccc2ccccc12 (stereo not given),0.0069
17,Cc1ccc(-c2onc3ccc(C(=O)/C=C/N(C)C)cc23)cc1,0.0023
18,Cc1cc(F)c(F)c(C(=O)N2CCCCC2C)c1Cl (stereo not given),0.0346
19,CNC(=S)NC1(C)CCS(=O)(=O)C1 (stereo not given),> 0.0333
20,COc1ccc(NC(=S)NCc2ccc(F)cc2)cc1,> 0.0436
21,Cc1ccc(C2N(C)C(=O)c3ccccc3N2C)cc1 (stereo not given),0.0315
22,CSc1ccc(/C=C/C(=O)N2CCN(c3ccccn3)CC2)cc1,0.0023
23,CC1CN(CC(=O)NCc2ccc(F)cc2)CC(C)O1 (stereo not given),> 0.0421
24,CCCS(=O)(=O)c1csc(C(=O)OC)c1N,0.0287

row,SMILES,solubility kinetic [mg/mL]
1,CCCCN(C(=O)c1ccncc1)c1c(N)n(CCC)c(=O)[nH]c1=O,0.0371
2,CCCn1c(C(O)c2cc(OC)c(OC)c(OC)c2)nc2ccccc21 (stereo not given),0.0493
3,CSc1nc(N(C)C)c2ccccc2n1,0.0318
4,Cc1onc(-c2c(F)cccc2Cl)c1C(=O)N(C)C1CCCCC1,> 0.0526
5,Cn1c(N)c(C(=O)COC(=O)c2ccc(Cl)nc2)c(=O)n(C)c1=O,0.0462
6,S=C1SCN(Cc2ccco2)CN1Cc1ccco1,> 0.0442
7,Cc1ccc(C)c(N2CC(C(=O)O)CC2=O)c1 (stereo not given),> 0.035
8,CC(NCCC1(C(C)C)CCOC(C)(C)C1)c1cccs1 (stereo not given),> 0.0464
9,CCCC(=O)c1c[nH]c(C(=O)NCc2cccnc2)c1,0.0181
10,CC1(c2ccc(OC(F)F)cc2)NC(=O)N(CC(=O)NC2CCCC2)C1=O (stereo not given),> 0.0572
11,Cc1c(N2C(=O)c3cccc4cccc(c34)C2=O)cnn1C,> 0.0437
12,CC(=O)c1ccc(NC(=O)CNC2CCCCC2)cc1.Cl,0.0384
13,CCc1cc2c(=O)oc(-c3ccccc3F)nc2s1,0.0007
14,CCCCNC(=S)N1CCn2cccc2C1c1ccc(F)cc1 (stereo not given),0.0103
15,CCOc1ccc(S(=O)(=O)N2CN3CCN(C3)C2)cc1,> 0.0446
16,Cc1ccc(NS(=O)(=O)c2ccccc2[N+](=O)[O-])cc1S(=O)(=O)N1CCCCC1,> 0.0659
17,O=C(CN1CCN(C/C=C/c2ccccc2)CC1)Nc1ccc(F)cc1F,0.0499
18,COc1ccccc1CNC(=O)Cn1cc([N+](=O)[O-])ccc1=O,> 0.0476
19,O=C(NC(=S)Nc1cccc(Cl)c1Cl)C1CC1,0.0008
20,COCC(C)NC(=S)Nc1ccccc1[N+](=O)[O-] (stereo not given),> 0.0404
21,Cc1ccc(C(=O)NCCCc2ccccc2)c(Cl)c1,0.0319
22,CS(=O)(=O)c1ccc(Cl)c(C(=O)NCC2CCCCC2)c1,> 0.0495
23,Nc1ccc(Cl)c(S(=O)(=O)Nc2ccc(Cl)cc2)c1,0.0434
24,COC(=O)C1CCN(C(=O)c2ccc(OC)c(S(=O)(=O)N3CCCc4ccccc43)c2)CC1,> 0.0709

row,SMILES,solubility kinetic [mg/mL]
1,Cc1sc2ncnc(NC(C)C(=O)O)c2c1C (stereo not given),> 0.0377
2,CCc1ccccc1NC(=O)COc1ccc2c(c1)OCO2,0.0414
3,O=C(Nc1ccc(Cl)cc1)OC1CN2CCC1CC2 (stereo not given),0.0405
4,CNC(=O)COC(=O)CCC(=O)c1cccs1,0.0316
5,CCN1CCN(C(CNS(=O)(=O)c2cccs2)c2cccnc2)CC1 (stereo not given),0.0493
6,OCCCNc1nc(-c2ccccc2)nc2c1oc1ccccc12,0.0013
7,O=C(Oc1ccc(F)cc1)c1cccnc1,0.0267
8,CC(C)(C)C(=O)N1CCN(c2ccnc3cc(Cl)ccc23)CC1,0.045
9,Cc1cccc(C)c1NC(=S)N(CCN(C)C)C(C)c1ccccn1 (stereo not given),> 0.0535
10,COCCOc1ccc(C(F)(F)F)cc1NC(=O)CN1C(=O)NC2(CCCc3ccccc32)C1=O (stereo not given),0.0168
11,CC(C)CCNC(=O)c1ccc2c(c1)ncn2C1CCCC1,> 0.0449
12,O=C(NC12CC3CC(CC(C3)C1)C2)c1c(Cl)cccc1Cl,< 0.0007
13,O=C(O)c1ccccc1C(=O)Nc1ccc(Oc2cccc(C(F)(F)F)c2)nc1,0.0602
14,Cc1ccc2oc(=O)n(Cc3ccc(F)cc3)c2c1,0.002
15,Cc1cc(C)cc(NC(=O)N2CCC(NC(=O)c3ccco3)CC2)c1,0.0444
16,Nc1ncnc2nc(SCCC(=O)O)[nH]c12,> 0.0359
17,O=C(COC(=O)/C=C/c1cccc(F)c1)Nc1cccc(S(=O)(=O)NC2=NCCCCC2)c1,0.0183
18,CCn1c(CCCNC(=O)c2ccco2)nc2ccccc21,0.0421
19,CCCC(=O)N1CCC(Cc2ccccc2)CC1,> 0.0368
20,CCOC(=O)c1c(C)[nH]c(C)c1S(=O)(=O)N1CCOCC1,> 0.0475
21,Cc1cc(Cl)ccc1NC(=O)/C=N/O,> 0.0319
22,COc1cccc(N2CCN(C(=O)c3cc4cc(Cl)ccc4[nH]3)CC2)c1,0.0118
23,CCC(=O)NCCNc1nc2cc(C)cc(C)c2cc1C#N,0.0037
24,CN(Cc1ccccc1)C(=O)COc1ccccc1Cl,0.04

row,SMILES,solubility kinetic [mg/mL]
1,CC(OC(=O)C1=COCCO1)C(=O)NC1CCCCC1C (stereo not given),> 0.0446
2,CC1CC1C(=O)OCC(=O)Nc1ccc(Cl)cn1 (stereo not given),0.0276
3,CCC(C)CCCCNC1=NCCS1 (stereo not given),> 0.0322
4,Cc1cc(C)n2nc(C(=O)OCC(=O)Nc3ccc(C)c(S(=O)(=O)N4CCOCC4)c3)nc2n1,> 0.0733
5,COc1ccc2c(CC(=O)Nc3ccc(OC)nc3)coc2c1,0.0148
6,Cc1c(NC(=O)[C@@H](NC(=O)c2ccc(Cl)c([N+](=O)[O-])c2)C(C)C)c(=O)n(-c2ccccc2)n1C,> 0.0729
7,Cc1cccc(N2CCN(C(=O)N3CCCCC3)CC2)c1C,0.0263
8,Cc1ccc(N=C2NC(=O)/C(=C/c3cccn3C)S2)cc1,0.002
9,NCCCn1cnc2ccccc21,> 0.0263
10,COC(=O)/C=C1\SC(N)=NC1=O,> 0.0279
11,Cc1ccc(S(=O)(=O)NC2CCCCCCC2)cc1,0.0243
12,N#Cc1c(N)c(C(=O)c2ccccc2)n2ccccc12,0.0314
13,CC1Cc2ccccc2N1C(=O)C1CC(=O)N(c2ccccc2)C1 (stereo not given),0.0449
14,COc1ccc(/C=C(\C)C(=O)c2c(C)cc(C)[nH]c2=O)cc1,0.0429
15,Cc1cc(=O)oc2cc(OCC(=O)Nc3nccs3)ccc12,0.0041
16,O=C(CNc1cccc([N+](=O)[O-])c1)NC(=O)NC1CCCCC1,0.03
17,COC(=O)c1ccc(OC(=O)CN2C(=O)c3ccccc3C2=O)cc1,0.0506
18,O=C(/C=C/c1ccccc1)NCc1ccco1,> 0.0341
19,Nc1c(C(=O)N2CCOCC2)sc2nc3c(cc12)CCC3,> 0.0455
20,Cc1nc(N)sc1-c1csc(Nc2cccc(C(=O)O)c2)n1,> 0.0499
21,CC1CCCN(C2(O)C(=O)Nc3ccc(Br)cc32)C1 (stereo not given),> 0.0488
22,C/C=C(\C)C(=O)N1CCC(C(=O)c2ccccc2)CC1,> 0.0407
23,Cc1ccc2nc(Cl)c(C#N)cc2c1,0.0022
24,NS(=O)(=O)c1ccc(CNC(=O)Cc2ccsc2)cc1,> 0.0466

row,SMILES,solubility kinetic [mg/mL]
1,COc1ccc(NC(=O)c2cc3ccc(O)cc3o/c2=N\O)cc1,< 0.0003
2,CCOC(=O)c1sc(=NC(=O)/C=C/c2ccccc2)n(C)c1C,< 0.0004
3,O=C(COC(=O)c1ccc(F)c(S(=O)(=O)N2CCOCC2)c1)NCc1ccc(Cl)cc1,0.0071
4,CC(C)(C)NC(=O)C(OC(=O)c1cccs1)c1ccc(F)cc1 (stereo not given),0.0013
5,COc1nc(-c2ccccc2)c2cc(C)ccc2n1,0.0154
6,CN(C)/C=C/C(=O)c1cccc(Oc2ncccn2)c1,> 0.0404
7,O=C(CN1CCN(c2ccccc2)CC1)N1CCc2ccccc21,0.007
8,Cl.OC(CNCc1ccccc1)COCc1ccc(Cl)cc1 (stereo not given),0.0342
9,CCN1CCN(C(=O)CSc2ccc(C)cc2)CC1,0.0412
10,CCCCNC(=O)C1c2ccccc2Oc2ccccc21,< 0.0006
11,Cc1cc(C)nc(NC(=O)Cc2ccc(Cl)cc2)c1,0.0086
12,CC(=O)c1ccc(NC(=O)C[n+]2cccc(C)c2)cc1.[Cl-],> 0.0457
13,COCc1cc(C)n(CC(=O)NCC2CCCO2)c(=O)c1C#N (stereo not given),0.0418
14,Fc1ccc(CNCCc2c[nH]c3ccccc23)cc1,> 0.0402
15,CCN1CCN(Cc2cc(OC)c3c(c2)OCO3)CC1,0.0339
16,CC1CN=C(Nc2ccc(F)cc2)S1 (stereo not given),> 0.0315
17,Cc1ccc(NS(=O)(=O)c2cccc3nsnc23)cc1C,0.0392
18,Cc1ccnc(NC(=O)CCCc2c[nH]c3ccccc23)c1,0.0043
19,COc1ccc(C(=S)N2CCCC2)cc1Br,> 0.045
20,COc1cccc(NC(=O)c2ccc3nc(C)sc3c2)c1,0.0387
21,O=C(Nc1nc2ccccc2[nH]1)C1CCCC1,0.004
22,CN1CCN(C(=O)c2cc3ccccc3cc2O)CC1,> 0.0405
23,O=C1CC(NC(=O)C(F)(F)F)c2cc3c(cc21)OCO3 (stereo not given),0.0423
24,O=C1CC(C(=O)N2CCCc3ccccc32)CN1c1ccc(Cl)cc1 (stereo not given),0.0462
